Data: US10112931B2, “3-pyrimidin-4-yl-oxazolidin-2-ones as inhibitors of mutant IDH” (NOVARTIS AG, priority 2013, dated 2018)
Structures can show the parent of a compound that is named as a salt.

Assays:
Type in all cases: in vitro ADME
[1] = Metabolic stability in liver microsomes, Method II, mouse
Procedure: The in vitro metabolic stability assay was performed in a 96-deep-well plate with incubation at 37° C. 10 mM DMSO stock solution of the test compound was diluted 1:20 in acetonitrile, followed by an additional 1:10 dilution in 100 mM potassium phosphate buffer (KPi) to yield a final reaction concentration of 1 μM. […] 290 μL of cofactor solution (1.7 mM NADPH, 1.7 mM UDPGA, 3.4 mM MgCl in 100 mM KPi) was added to 200 μL of microsomal protein for a final volume of 490 μL. The reaction was initiated by adding 10 μL of the 50 μM test solution to 490 μL of microsomal protein for a final volume 500 μL enzyme-compound mixture.
UPLC mobile phase A: 0.25% formic acid in 5% methanol; mobile phase B: 0.25% formic acid in 95% water.
Each microsomal elimination rate, k, was based on a 4-point elimination curve tested in duplicates. LC-MS/MS raw data for a reaction plate was returned as integrated analyte peak areas for the test compound and internal standard used in the quench solution for the reaction to enable use of analyte:internal standard peak area ratios (PARs) for all data comparisons. […]
[formula] The intrinsic clearance value, CLint (expressed as μL/min/mg microsomal protein) calculation is shown below: […]

[2] = Metabolic stability in liver microsomes, Method II, human
Procedure: Determination of Metabolic Stability in Liver Microsomes—Method II
The in vitro metabolic stability assay was performed in a 96-deep-well plate with incubation at 37° C. 10 mM DMSO stock solution of the test compound was diluted 1:20 in acetonitrile, followed by an additional 1:10 dilution in 100 mM potassium phosphate buffer (KPi) to yield a final reaction concentration of 1 μM. Immediately prior to the start of the experiment, respective animal or human liver microsomes (male Sprague-dawley rat, male CD-1 mouse, or pooled human liver microsomes) were diluted in 100 mM KPi to 1.25 mg/mL liver microsomal protein. 290 μL of cofactor solution (1.7 mM NADPH, 1.7 mM UDPGA, 3.4 mM MgCl in 100 mM KPi) was added to 200 μL of microsomal protein for a final volume of 490 μL. The reaction was initiated by adding 10 μL of the 50 μM test solution to 490 μL of microsomal protein for a final volume 500 μL enzyme-compound mixture.
At 0, 5, 15 and 30 minute time points in the reaction, reaction aliquots (75 μL) were removed and the reactions were terminated by the addition of 50:50 acetonitrile/methanol solution (75 μL) containing a mass spectrometry internal standard (0.5 μM glyburide). The samples were centrifuged at 4000 RPM for 10 minutes. Supernatants (15 μL aliquots) were transferred to a new plate where each well contains 90 μL of deionized water. The supernatants solution were analyzed by UPLC/MS/MS for quantitation of parent remaining compound under multiple reactions monitoring mode (MRM) in positive mode. The percentage of compound remaining, relative to 0 minutes, was used to estimate in vitro elimination-rate constant (k) which was used to calculate in vitro metabolic clearance rates.
Analysis of the samples was performed on an ultra-performance liquid chromatography-tandem mass spectrometry (UPLC/MS/MS) system consisting of an AB Sciex Qtrap 5500 mass spectrometer, AB Sciex Turbo V ion source, Waters Acquity Sample Organizer, Waters Acquity Column manager, Waters Acquity Sample manager, and a Waters Acquity Binary Solvent Manager. Chromatographic separation of analyte and internal standard was achieved using a reverse phase C-18 column (50×2.1 mm, 1.7 μm, Acquity UPLC BEH C-18) with the following UPLC mobile phases and elution gradient: […]
UPLC mobile phase A: 0.25% formic acid in 5% methanol; mobile phase B: 0.25% formic acid in […].
LC gradient and flow rate are listed below: […]
The injection volume was 5 μL. Compounds were detected using Analyst 1.5.1 software which collects intensity data for all fragments related to the molecular weight of the test compound. After collection of the raw data, the software identifies and integrates the peak of the strongest intensity.
Each microsomal elimination rate, k, was based on a 4-point elimination curve tested in duplicates. LC-MS/MS raw data for a reaction plate was returned as integrated analyte peak areas for the test compound and internal standard used in the quench solution for the reaction to enable use of analyte:internal standard peak area ratios (PARs) for all data comparisons. The reaction time point (e.g. 0, 5, 15 and 30 minutes) was plotted versus the natural logarithm of percent test compound remaining relative to 0 minutes (based on relative PAR). The slope of this clearance plot, k, was used to calculate the in vitro half-life.
[formula] The intrinsic clearance value, CLint (expressed as μL/min/mg microsomal protein) calculation is shown below:
[formula] […]

[3] = Metabolic stability in liver microsomes, Method I, rat
Procedure: The in vitro metabolic stability assay was performed in a 96-well glass plate with shaking incubation at 37° C. A 10 mM DMSO stock solution of the test compound was sequentially diluted 1:1000 to yield a final reaction concentration of 1 μM in 50 mM KPi. […] 30 μL of the 10 μM solution containing the test compound was added to 120 μL of microsomal protein for 150 μL enzyme-compound mixture. The reaction was initiated by adding 150 μL of cofactor solution (2 mM NADPH, 4 mM MgCl in 50 mM KPi) to the enzyme-compound mixture, and the final reaction concentrations are listed in the table below.
At 0, 5, 10 and 30 minute time points in the reaction, reaction aliquots (50 μL) were removed and the reactions were terminated by the addition of acetonitrile (150 μL) containing a mass spectrometry internal standard (1 μM glyburide). The samples were centrifuged and the supernatants analyzed by LC-MS/MS for quantization of remaining compound. […]
Mobile phase A consisted of purified water containing 0.01% formic acid. […] Compounds were detected using the Thermo QuikQuan software which collects intensity data for all fragments related to the molecular weight of the test compound. […]

Mouse microsomal stability CLint [1] [µL/min/mg] | Human microsomal stability CLint [2] [µL/min/mg] | Rat microsomal stability CLint [3] [µL/min/mg] | Structure (SMILES)
33.13 | <7.70 |  | C[C@H](Nc1nccc(N2C(=O)OC[C@@H]2[C@H](C)F)n1)c1cn(-c2ccc(F)cc2)cn1 [Example 401, (R)-4-((S)-1-fluoroethyl)-3-(2-(((S)-1-(1-(4-fluorophenyl)-1H-imidazol-4-yl)ethyl)amino)pyrimidin-4-yl)oxazolidin-2-one]
51.00 | 31.15 |  | C[C@H](Nc1nccc(N2C(=O)OC[C@@H]2[C@@H](C)N)n1)c1cnc(-c2ccc(Cl)cc2)s1 [Example 380, (S)-4-((R)-1-aminoethyl)-3-(2-(((S)-1-(2-(4-chlorophenyl)thiazol-5-yl)ethyl)amino)pyrimidin-4-yl)oxazolidin-2-one]

More lines, now with the values behind:

Structure (SMILES) | Mouse microsomal stability CLint [1] [µL/min/mg] | Human microsomal stability CLint [2] [µL/min/mg] | Rat microsomal stability CLint [3] [µL/min/mg]
C[C@H](Nc1nccc(N2C(=O)OCC2[C@H](C)F)n1)c1cn(-c2ccc(C(F)F)cc2)cn1 (stereo partly shown) [456 as TFA salt] |  | 16.79 | 44.66
C[C@H](Nc1nccc(N2C(=O)OC[C@@H]2[C@H](C)F)n1)c1ncc(-c2ccnc(C(F)(F)F)c2)cc1F [Example 463, (R)-3-(2-(((S)-1-(5-fluoro-2′-(trifluoromethyl)-[3,4′-bipyridin]-6-yl)ethyl)amino)pyrimidin-4-yl)-4-((S)-1-fluoroethyl)oxazolidin-2-one] | 35.45 | 28.27 | 
C[C@H](Nc1nccc(N2C(=O)OC[C@@H]2CF)n1)c1cn(-c2ccc(Cl)cc2)cn1 [Example 404, (R)-3-(2-(((S)-1-(1-(4-chlorophenyl)-1H-imidazol-4-yl)ethyl)amino)pyrimidin-4-yl)-4-(fluoromethyl)oxazolidin-2-one] | 18.72 | <7.70 | 
